Measured values: ChEMBL document CHEMBL1201862, “PubChem BioAssay data set” (2004)
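Exposure lasted 48 hours, with cells grown in 96-well plates and compounds tested at five concentrations. GI50 marks 50% less growth.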 The source made the active and inactive calls. Rule as the data show it: active = GI50 up to about 1.1 µM and inactive = higher.

Tests used:
Assay in all cases: inhibition of tumour cell growth, NCI panel, 48 h
[1] = tested on: K562
[2] = tested on: KM12
[3] = tested on: M14
[4] = tested on: COLO 205
[5] = tested on: LXFL 529
[6] = tested on: ACHN
[7] = tested on: SK-MEL-2
[8] = tested on: SK-OV-3
[9] = tested on: OVCAR-5
[10] = tested on: NCI-H226
[11] = tested on: CAKI-1
[12] = tested on: A549
[13] = tested on: RXF 393
[14] = tested on: LOX IMVI
[15] = tested on: Malme-3M
[16] = tested on: RPMI-8226
[17] = tested on: NCI-H23
[18] = tested on: OVCAR-8
[19] = tested on: CCRF-CEM
[20] = tested on: 786-0
[21] = tested on: HOP-62
[22] = tested on: NCI-H460
[23] = tested on: SN12C
[24] = tested on: XF498
[25] = tested on: MOLT-4
[26] = tested on: SK-MEL-28
[27] = tested on: SF-268
[28] = tested on: HOP-92
[29] = tested on: SF-295
[30] = tested on: U-251
[31] = tested on: DLD-1
[32] = tested on: EKVX
[33] = tested on: SNB-75
[34] = tested on: RXF 631
[35] = tested on: OVCAR-4
[36] = tested on: UO-31
[37] = tested on: HOP-18
[38] = tested on: DMS-114
[39] = tested on: SK-MEL-5
[40] = tested on: A498
[41] = tested on: IGROV-1
[42] = tested on: HCT-15
[43] = tested on: SNB-78
[44] = tested on: SF-539
[45] = tested on: TK-10
[46] = tested on: HCT-116
[47] = tested on: HL-60
[48] = tested on: SW-620
[49] = tested on: DMS-273
[50] = tested on: UACC-62
[51] = tested on: UACC-257
[52] = tested on: KM-20L2
[53] = tested on: HT-29
[54] = tested on: OVCAR-3
[55] = tested on: M19-MEL
[56] = tested on: NCI-H522
[57] = tested on: SR

## c1ccc2c(CNCCCCCCNCc3cccc4ccccc34)cccc2c1
[1]
  GI50: 1.56 µM (inactive)
[2]
  GI50: 3.66 µM (inactive)
[3]
  GI50: 1.79 µM (inactive)
[4]
  GI50: 1.66 µM (inactive)
[5]
  GI50: 1.91 µM (inactive)
[6]
  GI50: 15.6 µM (inactive)
[7]
  GI50: 1.65 µM (inactive)
[8]
  GI50: 17.5 µM (inactive)
[9]
  GI50: 15.9 µM (inactive)
[10]
  GI50: 17.4 µM (inactive)
[11]
  GI50: 7.38 µM (inactive)
[12]
  GI50: 17.8 µM (inactive)
[13]
  GI50: 2.19 µM (inactive)
[14]
  GI50: 1.87 µM (inactive)
[15]
  GI50: 1.95 µM (inactive)
[16]
  GI50: 2.27 µM (inactive)
[17]
  GI50: 16.4 µM (inactive)
[18]
  GI50: 14.5 µM (inactive)
[19]
  GI50: 3.06 µM (inactive)
[20]
  GI50: 13 µM (inactive)
[21]
  GI50: 16.1 µM (inactive)
[22]
  GI50: 1.81 µM (inactive)
[23]
  GI50: 12.4 µM (inactive)
[24]
  GI50: 2.42 µM (inactive)
[25]
  GI50: 3.04 µM (inactive)
[26]
  GI50: 1.85 µM (inactive)
[27]
  GI50: 11.9 µM (inactive)
[28]
  GI50: 6.14 µM (inactive)
[29]
  GI50: 12.2 µM (inactive)
[30]
  GI50: 10.7 µM (inactive)
[31]
  GI50: 3.78 µM (inactive)
[32]
  GI50: 13.2 µM (inactive)
[33]
  GI50: 2.31 µM (inactive)
[34]
  GI50: 3.74 µM (inactive)
[35]
  GI50: 14.7 µM (inactive)
[36]
  GI50: 11.3 µM (inactive)
[37]
  GI50: 15.5 µM (inactive)
[38]
  GI50: 7.45 µM (inactive)
[39]
  GI50: 7.24 µM (inactive)
[40]
  GI50: 18.7 µM (inactive)
[41]
  GI50: 16.2 µM (inactive)
[42]
  GI50: 6.75 µM
[43]
  GI50: 9.44 µM (inactive)
[44]
  GI50: 1.82 µM (inactive)
[45]
  GI50: 12.6 µM (inactive)
[46]
  GI50: 1.99 µM (inactive)
[47]
  GI50: 1.46 µM (inactive)
[48]
  GI50: 4.06 µM (inactive)
[49]
  GI50: 13.6 µM (inactive)
[50]
  GI50: 9.73 µM (inactive)
[51]
  GI50: 1.74 µM (inactive)
[52]
  GI50: 2.61 µM (inactive)
[53]
  GI50: 2.23 µM (inactive)
[54]
  GI50: 16.4 µM (inactive)
[55]
  GI50: 4.2 µM (inactive)
[56]
  GI50: 2.32 µM (inactive)
[57]
  GI50: 2.14 µM (inactive)
